Test results as given in patent US11135186B2, “Regulators of the endoplasmic reticulum proteostasis network” (The Scripps Research Institute, priority 2015, dated 2021).

Key:
[1] = system: XBP1-RLuc reporter (IRE1/XBP1s arm of the UPR); assay: XBP1-RLuc splicing reporter, 1536-well screen in HEK293T-Rex cells; format: cell-based; settings: % Tg (500 nM) activation, triplicate confirmation screen at 6.8 μM, 18 h
From the text: To evaluate the selectivity of our screening hits for ATF6, we employed an alternative luciferase reporter to measure activation of the IRE1/XBP1s arm of the UPR. This reporter contains Renilla luciferase (RLuc) expressed out of frame downstream of the XBP1 splice site, preventing RLuc translation in the absence of stress (FIG. 2b)^36,37. In response to IRE1 activation, the 26-nt XBP1 intron is removed, producing a frame shift that allows for RLuc translation and activity. Robust dose-dependent activation of the XBP1-RLuc reporter upon addition of the ER stressors Tg and Tm was confirmed in HEK293T-Rex cells stably expressing the XBP1-RLuc reporter, producing a Z′ score of 0.75 for Tg.
HEK293T-Rex cells incorporating either the ERSE-FLuc or XBP1s-RLuc reporters were collected by trypsinization and resuspended at a density of 500,000 cells per mL. The assay was started by dispensing 5 μL of cell suspension into each well of white, solid-bottom 1536-well plates using a flying reagent dispenser (FRD) and placed into an online incubator 3 h. Cells were then treated with 34 nL/well of either test compounds to give final concentrations of 6.8 μM, DMSO (Low control, final concentration 0.68%, 0% activation) or […] of Delta-7 thapsigargin (High control, final concentration 500 nM, 100% activation). Plates were incubated for 18 h at 37° C., removed from the incubator and equilibrated to room temperature for 10 min. Luciferase activity was detected by addition of 5 μL of ONE-Glo reagent (Promega) to each well. After a 10 min incubation time, light emission was measured with the ViewLux reader (PerkinElmer). The percent activation of each test compound was calculated as follows: % Activation=100*(Test Compound−Median Low Control)/(Median High Control ˜Median Low Control).

HepG2 cells = assay: HepG2 viability (CellTiter-Glo); format: cell-based
Protocol: HepG2 cells were plated at 5,000 cells/well in a translucent, flat-bottomed 96 well plate, and treated for 48 hr with vehicle, 10 μM Tg or 10 μM ER proteostasis regulator. ALMC-2 or KAS-6/1 cells were plated at 33,000 cells/well in 96-well plates then treated with proteostasis regulators for 16 h as described. Cell metabolic activity was measured using the CellTiter-Glo assay (Promega), which reports on intracellular ATP concentration. CellTiter-Glo reagent was added to cell culture media at a 1:1 ratio and incubated for 2 minutes on an orbital shaker to induce cell lysis. The plate was then incubated at room temperature for 10 minutes to stabilize the luminescent signal and read on a Tecan F200 Pro microplate reader.

[2] = system: ALLC (amyloidogenic light chain); assay: Light chain ELISA, ALLC from ALMC-2 plasma cells; format: cell-based, human; settings: ALMC-2 cells; for EC50: read-out: EC50 of dose dependent reduction in ALLC secretion
Protocol: ALMC-2 or KAS-6/1 plasma cells were plated 100,000 cells/well in 150 μL of media in 96-well MultiScreenHTS filtration plates (Millipore MSBVS1210). Triplicate wells were treated with DMSO or compounds at the indicated concentrations and incubated for 16 h. Media was removed by filtration using a QIAvac 96 vacuum manifold (Qiagen) and wells were washed two times with 150 μL media. Wells were then incubated with 150 μL of fresh media for 2 hr and the conditioned media was harvested into a 96-well plate using the vacuum manifold. Free λLC and IgG concentrations were determined by ELISA in 96-well plates (Immulon 4HBX, Thermo Scientific). Wells were coated overnight at 37° C. with rabbit anti-human A light chain polyclonal antibody (Bethyl Laboratories, A90-112A) at a 1:1000 dilution or human IgG-heavy and light chain antibody (Bethyl Laboratories, A80-118A) at a 1:2000 dilution in 50 mM sodium carbonate (pH 9.6). In between all incubation steps, the plates were rinsed extensively with Tris-buffered saline containing 0.05% Tween-20 (TBST). Plates were blocked with 5% non-fat dry milk in TBST for 1 h at 37° C. Media analytes were diluted between 5-200 fold in 5% non-fat dry milk in TBST and 100 μL of each sample was added to individual wells. Light chain or IgG standards ranging from 3-300 ng/mL were prepared from purified human Bence Jones A light chain or human reference serum (Bethyl Laboratories, P80-127 and RS10-110). Plates were incubated at 37° C. for 1.5 h while shaking. Finally, HRP-conjugated goat anti-human A light chain antibody (Bethyl Laboratories, A80-116P) was added at a 1:10,000 dilution or HRP-conjugate IgG-Fc fragment cross-adsorbed antibody (Bethyl Laboratories, A80-304P, 1:30,000 dilution) was added in 5% non-fat dry milk in TBST, followed by a 1.5 h incubation of the plates at 37° C. The detection was carried out with 2,2′-azinobis(3-ethylbenzothiazoline-6-sulfonic acid) (ABTS, 0.18 mg/mL) and 0.03% hydrogen peroxide in 100 mM sodium citrate pH 4.0. Detection solution (100 μL) was added to each well and the plates were incubated at room temperature. The absorbance was recorded at 405 nm and the values for the LC standards were fitted to a 4-parameter logistic function. Light chain or IgG concentrations were averaged from at least 3 independent replicates under each treatment and then normalized to vehicle conditions.

[3] = system: endogenous secretory proteome of HepG2^ATF6 cells; assay: [35S] metabolic labeling, total secreted protein from HepG2^ATF6 cells; format: cell-based; settings: 15 h pretreatment, 10 μM compound or 1 μM Tg, 4 h chase
Protocol: HepG2 cells or HEK293T cells plated on poly-D-lysine coated plates were metabolically labeled in DMEM-Cys/-Met (CellGro) supplemented with glutamine, penicillin/streptomycin, dialyzed fetal bovine serum, and EasyTag EXPRESS^35S Protein Labeling Mix (Perkin Elmer) for 30 min. Cells were washed twice with complete media and incubated in prewarmed DMEM for the indicated times. Media or lysates were harvested at the indicated times. Lysates were prepared in RIPA buffer with fresh protease inhibitor cocktail (Roche). FLAG tagged TTR variants or ALLC were immunopurified using M1 anti-FLAG agarose beads (Sigma-Aldrich) and washed three times with RIPA buffer. The immunoisolates were then eluted by boiling in Laemmli buffer and separated on SDS-PAGE. For total secreted media, 15 uL aliquots from media incubated for 4 hrs on pulsed cells were run on a SDS-PAGE. The gels were then dried, exposed to phosphorimager plates (GE Healthcare), and imaged with a Typhoon imager. Band intensities were quantified by densitometry in ImageQuant. Fraction secreted was calculated using the equation: fraction secreted=[extracellular [^35S]-LC signal at t=t/(extracellular [^35S]-LC signal at t=0+intracellular [^35S]-LC signal at t=0)]. Fraction remaining was calculated using the equation: [(extracellular [^35S]-LC signal at t=t+intracellular [^35S]-LC signal at t=t)/(extracellular [^35S]-LC signal at t=0+ intracellular [^35S]-LC signal at t=0)].

Compound	% XBP1-RLuc activation [1]	HepG2 viability (HepG2 cells; 10 μM)	HepG2 viability (HepG2 cells; 100 μM)	EC50 [2]	accumulation of [35S]-labeled protein in media (total secreted proteome) [3]	reduction of ALLC secretion ([2]; 10 μM pretreatment, ELISA)	ALLC intracellular protein levels ([2]; ELISA)	ALLC secretion (in words) ([2]; 10 μM)
Cc1ccc(O)c(N/C=C/C(=O)c2ccc(F)cc2)c1 [Compound 132]	10.3 ± 7.9%	do not significantly influence	reduce	~1 µM	did not influence			
Cc1ccc(O)c(NC(=O)CCc2ccccc2)c1 [Compound 147]	17.5 ± 1.9%	do not significantly influence	reduce	~1 µM	did not influence	60%	unchanged	
O=[N+]([O-])c1ccc(N/N=C/c2ccccc2O)cc1 [Compound 263]	2.4 ± 1.0%	do not significantly influence	reduce		did not influence			only minimally affects
